Legend:
Assay type in all cases: in vivo
Plutella xylostella = experiment: Foliar spray test on Plutella xylostella on cabbage (Test Example 10); settings: 120 h, third instar larvae of Plutella xylostella on cabbage, 500 ppm spray 20 ml/cup, after five days, read-out: controlling value
Outline: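 Cabbage at the third–fourth true-leaf stage sprayed with test solution at 20 ml/cup, dried, then infested with 10 third-instar larvae. Insects counted after five days; controlling value (%) calculated from treated and non-treated counts before treatment and at observation.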

Culex pipiens pallens [1] = experiment: Knockdown spray test on adult Culex pipiens pallens (Test Example 4); settings: topical, 0.25 h, active ingredient 0.1% w/v, 0.5 ml sprayed, within 15 minutes, read-out: knockdown rate of the test insects within 15 minutes
Outline: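 Ten adult mosquitoes in a gauze-covered cup inside a 46×46×70 cm chamber were sprayed with 0.5 ml of test solution from 30 cm at 0.4 kg/cm^2. The cup was removed at once, and knocked-down insects were counted at 2, 5 and 15 min; knockdown rate (%) = knocked-down/tested ×100.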

Culex pipiens pallens [2] = experiment: Larvicidal test on Culex pipiens pallens, eight days (Test Example 7); settings: 192 h; last-instar larvae of Culex pipiens pallens; 3.5 ppm in water; eight days later; read-out: death rate
Outline: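 Twenty last-instar larvae placed in 100 ml ion-exchanged water containing test drug at 3.5 ppm active ingredient. Mortality scored after eight days; death rate = dead/tested × 100.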

Spodoptera litura = experiment: Foliar spray test on Spodoptera litura on cabbage (Test Example 11); settings: 96 h, fourth instar larvae of Spodoptera litura on cabbage, 500 ppm spray 20 ml/cup, after 4 days, read-out: controlling value
Outline: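 Cabbage is grown in cups to the third–fourth true leaf and sprayed at 20 ml/cup. Once the spray has dried, 10 fourth-instar larvae are released per cup and survivors are counted after 4 days. Controlling value (%) is corrected using pre-treatment and observation counts in treated and untreated sections.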

Aphis gossypii = experiment: Foliar spray test on Aphis gossypii on cucumber (Test Example 8); settings: 144 h, 500 ppm spray 20 ml/cup, Sir days after spraying, read-out: controlling value
Experimental: On the other hand, cucumber was planted in a polyethylene cup and grown until the first true leaf was spread, and about 20 Aphis gossypii were allowed to parasitize the cucumber. One day after, the test spray solution was sprayed to the cucumber at a ratio of 20 ml/cup. Sir days after spraying, the number of Aphis gossypii was investigated, and the controlling value was calculated according to the following equation. Controlling value (%)={1−(Cb×Tai)/(Cai×Tb)}×100 In the equation, the symbols represent as follows. Cb: the number of insects in a non-treated section before treatment Cai: the number of insects in a non-treated section on observation Tb: the number of insects in a treated section before treatment Tai: the number of insects in a treated section on observation

Blattella germanica = experiment: Knockdown spray test on Blattella germanica, 0.1% w/v oil formulation (Test Example 2); settings: topical, 0.25 h, active ingredient 0.1% w/v, 1.5 ml sprayed, within 15 minutes, read-out: knockdown rate of the test insects within 15 minutes
Outline: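 Ten German cockroaches (5 males, 5 females) in a mesh-bottomed, butter-walled container were sprayed with 1.5 ml test solution from 60 cm at 0.42 kg/cm^2 inside a chamber.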

[3] = system: Adoxophyes orana fasciata; experiment: Spray test on Adoxophyes orana fasciata on apple seedling (Test Example 12); settings: 168 h, first-instar larvae of Adoxophyes orana fasciata on apple seedling, 20 ml spray, seven days after spraying
Experimental: On the other hand, 20 ml of the test spray solution was each sprayed on an apple seedling (28 days after sowing, a tree height of about 15 cm) planted in a plastic cup. After the drug solution sprayed on the apple was air-dried, about 30 first-instar larvae of Adoxophyes orana fasciata were released. Seven days after spraying, the number of surviving Adoxophyes orana fasciata on the apple seedling was investigated, and the controlling value was calculated according to the following equation. Controlling value (%)={1−(Cb×Tai)/(Cai×Tb)}×100 In the equation, the symbols represent as follows. Cb: the number of insects in a non-treated section before treatment Cai: the number of insects in a non-treated section on observation Tb: the number of insects in a treated section before treatment Tai: the number of insects in a treated section on observation

Compound: O=C(NCC1CCOCC1)c1cc(COCc2ccc(Cl)c(Cl)c2)on1 [(73), N-(tetrahydropyran-4-ylmethyl)-5-(3,4-dichlorobenzyloxymethyl)isoxazole-3-carboxamide]
- pest or weed control at 500 ppm (Plutella xylostella): ≥ 90%
- pest or weed control at 0.1 % strength (Culex pipiens pallens [1]): ≥ 80%
- pest or weed control at 3.5 ppm (Culex pipiens pallens [2]): ≥ 90%
- pest or weed control at 500 ppm (Spodoptera litura): ≥ 80%
- pest or weed control at 500 ppm (Aphis gossypii): ≥ 90%
- pest or weed control at 0.1 % strength (Blattella germanica): ≥ 80%
- pest or weed control at 500 ppm [3]: 100%

From US20150344466A1 (SUMITOMO CHEMICAL COMPANY, LIMITED, priority 2013, published 2015)
